Laboratory results from the NIST ThermoML archive (doi:10.1016/j.fluid.2010.10.028).
Numbers after ± are expanded uncertainties.

Test: xn = mol fraction of the nth substance listed
Conditions: Liquid, Vibrating tube method

CC(C)=O [acetone] + CCCCCCC
Conditions | mass density [kg/m3]
397.26 K, 104690 kPa, x1 = 0.8992 | 764.67 ± 1.6
397.26 K, 109670 kPa, x1 = 0.4 | 767.98 ± 1.6
397.26 K, 109670 kPa, x1 = 0.8992 | 767.98 ± 1.6
397.26 K, 114610 kPa, x1 = 0.4 | 771.16 ± 1.6
397.26 K, 114610 kPa, x1 = 0.8992 | 771.16 ± 1.6
397.26 K, 119600 kPa, x1 = 0.4 | 774.27 ± 1.6
397.26 K, 119600 kPa, x1 = 0.8992 | 774.27 ± 1.6
397.27 K, 1520 kPa, x1 = 0.611 | 608 ± 1.2
397.27 K, 4850 kPa, x1 = 0.801 | 635.17 ± 1.2
397.27 K, 4860 kPa, x1 = 0.611 | 616.98 ± 1.2
397.27 K, 9850 kPa, x1 = 0.801 | 646.73 ± 1.2
397.27 K, 9870 kPa, x1 = 0.611 | 628.41 ± 1.2
397.27 K, 10000 kPa, x1 = 0.4 | 660.81 ± 1.2
397.27 K, 10000 kPa, x1 = 0.8992 | 660.81 ± 1.2
397.27 K, 14860 kPa, x1 = 0.801 | 656.72 ± 1.2
397.27 K, 19840 kPa, x1 = 0.801 | 665.54 ± 1.3
397.27 K, 19860 kPa, x1 = 0.611 | 646.79 ± 1.3
397.27 K, 24850 kPa, x1 = 0.611 | 654.54 ± 1.3
397.27 K, 24870 kPa, x1 = 0.801 | 673.51 ± 1.3
397.27 K, 24950 kPa, x1 = 0.4 | 687.4 ± 1.3
397.27 K, 24950 kPa, x1 = 0.8992 | 687.4 ± 1.3
397.27 K, 29850 kPa, x1 = 0.611 | 661.6 ± 1.3
397.27 K, 34860 kPa, x1 = 0.801 | 687.43 ± 1.3
397.27 K, 34870 kPa, x1 = 0.611 | 668.12 ± 1.3
397.27 K, 34940 kPa, x1 = 0.4 | 701.35 ± 1.3
397.27 K, 34940 kPa, x1 = 0.8992 | 701.35 ± 1.3
397.27 K, 39870 kPa, x1 = 0.611 | 674.11 ± 1.4
397.27 K, 39930 kPa, x1 = 0.4 | 707.57 ± 1.3
397.27 K, 39930 kPa, x1 = 0.8992 | 707.57 ± 1.3
397.27 K, 44850 kPa, x1 = 0.801 | 699.35 ± 1.4
397.27 K, 44870 kPa, x1 = 0.611 | 679.73 ± 1.4
397.27 K, 49850 kPa, x1 = 0.611 | 684.97 ± 1.4
397.27 K, 49850 kPa, x1 = 0.801 | 704.77 ± 1.4
397.27 K, 54850 kPa, x1 = 0.611 | 689.91 ± 1.4
397.27 K, 54860 kPa, x1 = 0.801 | 709.87 ± 1.4
397.27 K, 59840 kPa, x1 = 0.611 | 694.59 ± 1.4
397.27 K, 64820 kPa, x1 = 0.801 | 719.28 ± 1.4
397.27 K, 64860 kPa, x1 = 0.4 | 733.56 ± 1.4
397.27 K, 64860 kPa, x1 = 0.8992 | 733.56 ± 1.4
397.27 K, 69920 kPa, x1 = 0.611 | 703.34 ± 1.5
397.27 K, 69920 kPa, x1 = 0.801 | 723.77 ± 1.4
397.27 K, 79800 kPa, x1 = 0.4 | 746.33 ± 1.5
397.27 K, 79800 kPa, x1 = 0.8992 | 746.33 ± 1.5
397.27 K, 79900 kPa, x1 = 0.801 | 731.97 ± 1.5
397.27 K, 79910 kPa, x1 = 0.611 | 711.27 ± 1.5
397.27 K, 84880 kPa, x1 = 0.611 | 715 ± 1.6
397.27 K, 84880 kPa, x1 = 0.801 | 735.83 ± 1.5
397.27 K, 89870 kPa, x1 = 0.611 | 718.57 ± 1.6
397.27 K, 89870 kPa, x1 = 0.801 | 739.53 ± 1.5
397.27 K, 94750 kPa, x1 = 0.4 | 757.72 ± 1.5
397.27 K, 94750 kPa, x1 = 0.8992 | 757.72 ± 1.5
397.27 K, 94840 kPa, x1 = 0.801 | 743.11 ± 1.6
397.27 K, 94850 kPa, x1 = 0.611 | 722.01 ± 1.6
397.27 K, 99720 kPa, x1 = 0.4 | 761.24 ± 1.6
397.27 K, 99720 kPa, x1 = 0.8992 | 761.24 ± 1.5
397.27 K, 99830 kPa, x1 = 0.611 | 725.33 ± 1.6
397.27 K, 104800 kPa, x1 = 0.611 | 728.56 ± 1.6
397.27 K, 104800 kPa, x1 = 0.801 | 749.91 ± 1.6
397.27 K, 109770 kPa, x1 = 0.611 | 731.66 ± 1.7
397.27 K, 119830 kPa, x1 = 0.801 | 759.4 ± 1.7
397.27 K, 124560 kPa, x1 = 0.4 | 777.29 ± 1.6
397.27 K, 124560 kPa, x1 = 0.8992 | 777.29 ± 1.6
397.27 K, 129820 kPa, x1 = 0.4 | 780.45 ± 1.7
397.27 K, 129820 kPa, x1 = 0.8992 | 780.45 ± 1.6
397.27 K, 129840 kPa, x1 = 0.801 | 765.29 ± 1.7
397.28 K, 1470 kPa, x1 = 0.7024 | 615.75 ± 1.2
397.28 K, 1500 kPa, x1 = 0.492 | 600.98 ± 1.2
397.28 K, 4850 kPa, x1 = 0.7024 | 624.89 ± 1.2
397.28 K, 4860 kPa, x1 = 0.492 | 609.77 ± 1.2
397.28 K, 9830 kPa, x1 = 0.7024 | 636.41 ± 1.2
397.28 K, 9850 kPa, x1 = 0.492 | 620.92 ± 1.2
397.28 K, 14840 kPa, x1 = 0.7024 | 646.37 ± 1.2
397.28 K, 14860 kPa, x1 = 0.492 | 630.52 ± 1.2
397.28 K, 19840 kPa, x1 = 0.7024 | 655.11 ± 1.3
397.28 K, 24820 kPa, x1 = 0.7024 | 662.95 ± 1.3
397.28 K, 29820 kPa, x1 = 0.7024 | 670.12 ± 1.3
397.28 K, 29840 kPa, x1 = 0.492 | 653.43 ± 1.3
397.28 K, 29860 kPa, x1 = 0.801 | 680.72 ± 1.3
397.28 K, 34830 kPa, x1 = 0.7024 | 676.7 ± 1.3
397.28 K, 34860 kPa, x1 = 0.492 | 659.77 ± 1.3
397.28 K, 39840 kPa, x1 = 0.7024 | 682.81 ± 1.3
397.28 K, 39850 kPa, x1 = 0.801 | 693.57 ± 1.3
397.28 K, 44820 kPa, x1 = 0.7024 | 688.48 ± 1.4
397.28 K, 44860 kPa, x1 = 0.492 | 671.15 ± 1.4
397.28 K, 49810 kPa, x1 = 0.7024 | 693.79 ± 1.4
397.28 K, 54840 kPa, x1 = 0.492 | 681.14 ± 1.4
397.28 K, 54910 kPa, x1 = 0.7024 | 698.93 ± 1.4
397.28 K, 59840 kPa, x1 = 0.492 | 685.74 ± 1.4
397.28 K, 59850 kPa, x1 = 0.801 | 714.7 ± 1.4
397.28 K, 59860 kPa, x1 = 0.7024 | 703.65 ± 1.4
397.28 K, 64820 kPa, x1 = 0.492 | 690.08 ± 1.5
